Laboratory results: ChEMBL document CHEMBL4428063, “Novel Pyrimidine Toll-like Receptor 7 and 8 Dual Agonists to Treat Hepatitis B Virus” (J Med Chem, 2016)

Tests used:
[1] = target: T1, Toll-like receptor 8 (Homo sapiens) (UniProt Q9NR97); assay: Agonist activity at human TLR8 expressed in HEK293 cells assessed as measured after 6 hrs by NF-kappaB luciferase reporter gene assay; format: cell-based
T1 sequence (whole entry): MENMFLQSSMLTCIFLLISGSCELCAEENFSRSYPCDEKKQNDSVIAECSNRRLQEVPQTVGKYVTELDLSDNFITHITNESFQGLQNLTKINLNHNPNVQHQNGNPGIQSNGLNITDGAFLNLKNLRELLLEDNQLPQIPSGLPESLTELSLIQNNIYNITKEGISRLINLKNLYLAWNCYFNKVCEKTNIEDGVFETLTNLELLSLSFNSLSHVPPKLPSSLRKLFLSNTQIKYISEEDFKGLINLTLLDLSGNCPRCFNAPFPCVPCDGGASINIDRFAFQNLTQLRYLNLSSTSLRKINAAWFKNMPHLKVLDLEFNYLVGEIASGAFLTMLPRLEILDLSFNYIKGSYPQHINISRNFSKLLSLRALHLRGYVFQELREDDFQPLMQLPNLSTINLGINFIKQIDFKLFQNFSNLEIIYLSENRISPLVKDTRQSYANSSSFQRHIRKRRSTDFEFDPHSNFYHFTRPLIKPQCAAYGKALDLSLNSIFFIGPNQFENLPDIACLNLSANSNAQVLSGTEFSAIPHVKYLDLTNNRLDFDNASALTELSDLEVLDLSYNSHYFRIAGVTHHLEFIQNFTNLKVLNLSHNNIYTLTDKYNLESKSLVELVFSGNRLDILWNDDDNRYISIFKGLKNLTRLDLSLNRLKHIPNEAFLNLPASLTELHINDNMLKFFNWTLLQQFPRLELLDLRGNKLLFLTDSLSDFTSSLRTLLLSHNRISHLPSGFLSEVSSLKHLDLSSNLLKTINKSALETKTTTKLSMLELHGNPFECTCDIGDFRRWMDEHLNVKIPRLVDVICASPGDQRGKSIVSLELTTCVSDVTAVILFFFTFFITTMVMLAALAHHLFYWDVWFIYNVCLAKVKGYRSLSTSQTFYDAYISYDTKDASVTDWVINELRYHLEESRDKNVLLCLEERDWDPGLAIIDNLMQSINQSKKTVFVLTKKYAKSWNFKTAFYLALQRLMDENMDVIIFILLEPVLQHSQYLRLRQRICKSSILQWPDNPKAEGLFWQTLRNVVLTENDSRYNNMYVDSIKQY

[2] = target: T2, Toll-like receptor 7 (Homo sapiens) (UniProt Q9NYK1); assay: Agonist activity at human TLR7 expressed in HEK293 cells measured after 6 hrs by NF-kappaB luciferase reporter gene assay; format: cell-based
T2 sequence (whole entry): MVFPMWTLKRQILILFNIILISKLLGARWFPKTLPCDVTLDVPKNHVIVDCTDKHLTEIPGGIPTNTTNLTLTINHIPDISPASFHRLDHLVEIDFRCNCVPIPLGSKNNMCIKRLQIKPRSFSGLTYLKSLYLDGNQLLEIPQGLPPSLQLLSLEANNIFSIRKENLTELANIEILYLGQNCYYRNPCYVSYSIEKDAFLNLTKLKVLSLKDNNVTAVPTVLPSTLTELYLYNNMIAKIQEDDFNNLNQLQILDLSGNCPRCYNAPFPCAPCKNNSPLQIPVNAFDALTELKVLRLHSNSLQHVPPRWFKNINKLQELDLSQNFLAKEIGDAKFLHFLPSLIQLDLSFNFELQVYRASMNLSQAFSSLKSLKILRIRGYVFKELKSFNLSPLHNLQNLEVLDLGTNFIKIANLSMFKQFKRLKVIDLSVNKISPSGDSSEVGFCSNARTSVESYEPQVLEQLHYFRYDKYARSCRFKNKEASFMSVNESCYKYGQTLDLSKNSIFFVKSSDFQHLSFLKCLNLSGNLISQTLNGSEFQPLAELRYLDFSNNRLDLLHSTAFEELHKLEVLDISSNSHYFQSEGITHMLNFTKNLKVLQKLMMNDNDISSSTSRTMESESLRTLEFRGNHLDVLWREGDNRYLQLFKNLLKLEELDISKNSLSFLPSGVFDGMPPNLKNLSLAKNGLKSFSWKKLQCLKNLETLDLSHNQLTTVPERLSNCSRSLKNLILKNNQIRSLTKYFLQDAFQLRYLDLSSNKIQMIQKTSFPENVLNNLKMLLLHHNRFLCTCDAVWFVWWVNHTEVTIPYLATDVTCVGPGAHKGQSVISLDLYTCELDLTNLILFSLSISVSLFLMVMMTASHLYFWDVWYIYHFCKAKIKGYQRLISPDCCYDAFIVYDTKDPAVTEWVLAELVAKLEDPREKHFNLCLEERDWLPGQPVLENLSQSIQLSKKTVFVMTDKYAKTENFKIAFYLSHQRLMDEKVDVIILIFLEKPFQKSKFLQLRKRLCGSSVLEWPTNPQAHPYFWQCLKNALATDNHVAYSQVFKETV

[3] = target: T2, Toll-like receptor 7 (Homo sapiens); assay: Activation of TLR7 in human PBMCs incubated for overnight duration followed by compound-treated cell supernatant conditioned media transfer to HCV1b transfected human HuH7-luc/neo replicon cells assessed as induction of INFalpha-mediated suppression of virus growth by firefly-luciferase reporter gene assay
HEK293 = assay: Agonist activity at human TLR7-dLRR2 mutant expressed in HEK293 cells measured after 6 hrs by NF-kappaB luciferase reporter gene assay; format: cell-based

SMILES	LED [1] [µM]	LED [2] [µM]	LED [3] [µM]	LED (HEK293) [µM]
C=CCNc1nc(N)ncc1OC	8.5	> 25	6.2	
CCCCNc1nc(N)ncc1OCc1nn(C)c2ccccc12	0.18	0.014	0.011	
CC[C@H](C)CNc1nc(N)ncc1OC	> 25	> 25	> 24	
CCC[C@@H](CCO)Nc1nc(N)ncc1OC	1.4	7.3	0.8	
CCC(C)[C@H](CCO)Nc1nc(N)ncc1OC (some centres undefined)	2.6	10.4	2.2	
CCCC(C)Nc1nc(N)ncc1OC (racemic)	2.8	> 25	1.7	
CCCCNc1nc(N)ncc1OC(C)C	0.7	10	0.5	
CCCC[C@@H](CO)Nc1nc(N)ncc1OC	0.39	8.01	0.4	
CCC[C@H](CO)Nc1nc(N)ncc1OC	9	> 25		
CCCCNc1nc(N)nc(C)c1OCc1ccccc1	7.5	18		
CCCCNc1nc(N)ncc1OCCCc1ccccc1	7.9	1.5	0.25	
COc1cnc(N)nc1N[C@H](CCO)CC(C)C	2.3	10.8	7.5	
COc1cnc(N)nc1NCCCC(F)(F)F	6.6	6.5	1.6	
COc1cnc(N)nc1NCCC1CC1	20.9	> 25	6.8	
COc1cnc(N)nc1N[C@H](CO)CC(C)C	16	> 25	11	
CCCCCNc1nc(N)ncc1OCC	3.2	6		
CC[C@H](C)[C@@H](CO)Nc1nc(N)ncc1OC	0.66	17.8	1.7	
CCC[C@@H](CO)Nc1nc(N)ncc1OC	0.25	8.4	0.4	

Continued, in another order:

LED [1] [µM]	LED [2] [µM]	LED [3] [µM]	SMILES	LED (HEK293) [µM]
0.83	0.52	0.12	CCCCNc1nc(N)ncc1OCc1cccnn1	
1.3	0.21	0.037	CCCCNc1nc(N)ncc1OCc1cc2ccccn2n1	
0.74	0.29	0.07	CCCCNc1nc(N)ncc1OCc1csc(C)n1	
0.92	0.7	0.39	CCCCNc1nc(N)ncc1OCc1cc(C)nn1C	
4.5	6.2	4.8	CCCCNc1nc(N)ncc1OCCC	
2.4	0.9	0.39	CCCCNc1nc(N)ncc1OCc1ccccc1	
1.1	4.7		CCCCNc1nc(N)ncc1OCC	1.6
1	3.1	0.38	CCCCNc1nc(N)ncc1OCc1c(C)noc1C	
0.14	0.008	0.003	CCCCNc1nc(N)ncc1OCc1nccc2ccccc12	
3.6	2.87		CCCCNc1nc(N)ncc1OCc1ncco1	
0.65	0.032	0.012	CCCCNc1nc(N)ncc1OCc1nc2ccccc2[nH]1	
2.6	0.28	0.11	CCCCNc1nc(N)ncc1OCc1nc2ccccc2s1	
0.6	0.13	0.022	CCCCNc1nc(N)ncc1OCc1nccc(OC)c1OC	
13.7	7		CCCCNc1nc(N)ncc1OCc1cnn(C)c1	
1.58	0.46		CCCCNc1nc(N)ncc1OCc1nc(C)oc1C	
2.28	0.51	0.16	CCCCNc1nc(N)ncc1OCc1cnccn1	
0.89	0.3	0.09	CCCCNc1nc(N)ncc1OCc1ccc2ccccc2n1	
